Each block holds one compound with its values, some of them ahead of it.
Columns and labels:
[1] = molecular target: T1, human serum albumin (Homo sapiens, UniProt P02768); assay: Thermal denaturation of human serum albumin solution: check of precipitation during heating; type: physicochemical
T1 construct: the single supply source of human serum albumin is currently the blood of humans; purchased Sigma-Aldrich A3782
Procedure: Thus, the present inventors estimated oleic acid affecting stability depending on the temperature. […] Specifically, while the temperature was maintained at 65° C., 70° C. and 75° C., whether the precipitation was formed due to denaturation of protein was checked at intervals of 30 min, 5 min and 3 min, respectively.
Thermostabilizing effects were evaluated at 70° C. using other C18 fatty acids including stearic acid, linoleic acid, α-linolenic acid and γ-linolenic acid, as well as oleic acid, in the same manner as in Example 6.1. for testing of stability against denaturation due to thermal treatment using oleic acid.
Thermostabilizing effects at 65° C. were evaluated using C16 fatty acids including palmitic acid and palmitoleic acid, as well as oleic acid as the C18 fatty acid, in the same manner as in Examples 6.1. and 6.2. for testing of stability against degeneration due to thermal treatment using various C18 fatty acids including oleic acid. The samples were warmed to 65° C. and observed at an interval of 5 min.
Thermostabilizing effects at 65° C. were evaluated using EPA (eicosapentaenoic acid) and DHA (docosahexanoic acid) as C20 and C22 fatty acids, as well as oleic acid as the C18 fatty acid, in the same manner as in Examples 6.1. to 6.3. for testing of stability against denaturation due to thermal treatment using various C16 and C18 fatty acids.

[2] = molecular target: T1, human serum albumin; assay: Structural stability against thermal treatment: secondary structure composition from circular dichroism; type: physicochemical; conditions: for structural stability (ratio of α-helix / circular dichroism spectrum), in words / structural stability (ratio of α-helix by circular dichroism), in words: albumin 1 mg/mL
Procedure: The composition of the secondary structure of protein may be estimated using circular dichroism, and thus changes in structure of the thermally denatured protein may be measured.
Measurement of circular dichroism was performed three times under conditions of a data pitch of 0.2 nm, a band width of 1.0 nm, a response time of 4 sec, and a scanning speed of 50 nm/min using a quartz cuvette having a path length of 0.1 cm by use of Jasco J-715 spectropolarimeter. The composition of the secondary structure was assayed from the measured circular dichroism values using SELCON3 program contained in the Dicroprot program.

T1 sequence (P02768 25-609): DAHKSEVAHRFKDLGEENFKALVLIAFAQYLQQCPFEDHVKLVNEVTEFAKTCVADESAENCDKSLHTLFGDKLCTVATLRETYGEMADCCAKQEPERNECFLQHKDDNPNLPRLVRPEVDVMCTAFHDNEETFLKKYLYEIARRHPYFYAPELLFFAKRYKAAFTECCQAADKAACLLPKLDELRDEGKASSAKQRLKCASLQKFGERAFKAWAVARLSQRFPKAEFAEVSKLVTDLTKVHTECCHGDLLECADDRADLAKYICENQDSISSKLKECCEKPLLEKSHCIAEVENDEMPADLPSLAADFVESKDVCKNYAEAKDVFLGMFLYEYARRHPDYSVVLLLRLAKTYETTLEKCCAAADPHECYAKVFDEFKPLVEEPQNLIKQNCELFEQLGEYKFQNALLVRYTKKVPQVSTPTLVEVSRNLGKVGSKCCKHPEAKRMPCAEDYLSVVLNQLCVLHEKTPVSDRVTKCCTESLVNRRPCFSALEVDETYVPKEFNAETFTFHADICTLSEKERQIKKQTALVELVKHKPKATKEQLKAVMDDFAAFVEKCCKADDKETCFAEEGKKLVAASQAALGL

stability against denaturation due to thermal treatment compared to the human serum albumin control ([1]; 65° C., albumin 50 mg/mL, Examples 6.3, 6.4): much higher
SMILES: CC/C=C\C/C=C\C/C=C\C/C=C\C/C=C\C/C=C\CCC(=O)O [DHA, (4Z,7Z,10Z,13Z,16Z,19Z)-docosa-4,7,10,13,16,19-hexaenoic acid]

structural stability (ratio of α-helix / circular dichroism spectrum), in words ([2]; heated at 70° C. for 10 hr): maintained
SMILES: CCCCC/C=C\C/C=C\CCCCCCCC(=O)O [linoleic acid]

time for which denaturation was not observed ([1]; 60° C., albumin 50 mg/mL, fatty acid 1:1): ≥ 10 h
time for which denaturation did not occur ([1]; 65° C., albumin 50 mg/mL, fatty acid 1:1): about 6 hr
time after which precipitation began to form ([1]; 65° C., albumin 50 mg/mL, Example 6.1): 330 min
period of time maintained stably compared to the fatty acid-free human serum albumin solution ([1]; 70° C.): two times as long or more
time after which precipitation began to form ([1]; 70° C., albumin 50 mg/mL, Example 6.1): 30 min
difference between the control and the test group ([1]; 75° C., albumin 50 mg/mL, Example 6.1): no difference
structural stability (ratio of α-helix by circular dichroism), in words ([2]; heated at 60° C. for 10 hr): maintained
structural stability (ratio of α-helix / circular dichroism spectrum), in words ([2]; heated at 70° C. for 10 hr): maintained
structural stability (circular dichroism spectrum), in words ([2]; heated at 70° C. for 10 hr, albumin 1 to 40 mg/mL, Example 8): stability thereof was maintained
structural stability (ratio of α-helix by circular dichroism), in words ([2]; heated at 80° C. for 10 hr): deteriorated
SMILES: CCCCCCCC/C=C\CCCCCCCC(=O)O [oleic acid]

structural stability (ratio of α-helix / circular dichroism spectrum), in words ([2]; heated at 70° C. for 10 hr): maintained
SMILES: CCCCCCC=CCCCCCCCC(=O)O [palmitoleic acid, hexadec-9-enoic acid]

SMILES: CC/C=C\C/C=C\C/C=C\CCCCCCCC(=O)O [α-linolenic acid, all-cis-9,12,15-octadecatrienoic acid]
structural stability (ratio of α-helix / circular dichroism spectrum), in words ([2]; heated at 70° C. for 10 hr): maintained

structural stability (ratio of α-helix / circular dichroism spectrum), in words ([2]; heated at 70° C. for 10 hr): maintained
SMILES: CCCCC/C=C\C/C=C\C/C=C\CCCCC(=O)O [γ-linolenic acid]
